From patent US20200325177A1, “METHODS OF MAKING STREPTOGRAMIN COMPOSITIONS AND THE USE THEREOF” (THE REGENTS OF THE UNIVERSITY OF CALIFORNIA, priority 2017, published 2020)
In brackets after ≈: the same amount, converted by molar mass. Where two headings read alike, the source gives them in different places.

How the values were obtained:
Format in all cases: cell-based
H. influenzae ATCC 49247 = test: MIC, Gram-negative bacteria: H. influenzae ATCC 49247; conditions: Haemophilus influenzae, ATCC49247, read-out: Minimal Inhibitory Concentration (MIC) H. influenzae ATCC 49247
[1] = system: P. aeruginosa MDR clinical isolate; test: MIC, Gram-negative bacteria: P. aeruginosa MDR clinical isolate; conditions: Pseudomonas aeruginosa, read-out: Minimal Inhibitory Concentration (MIC) P. aeruginosa MDR clinical isolate
S. aureus = test: MIC, Gram-positive bacteria: S. aureus (strains not named); conditions: Staphylococcus aureus, read-out: Minimal Inhibitory Concentration (MIC) S. aureus
P. aeruginosa ATCC 27853 = test: MIC, Gram-negative bacteria: P. aeruginosa ATCC 27853; conditions: Pseudomonas aeruginosa, ATCC27853, read-out: Minimal Inhibitory Concentration (MIC) P. aeruginosa ATCC 27853
E. faecium VRE; vanA = test: MIC, Gram-positive bacteria: E. faecium VRE; vanA; conditions: Enterococcus faecium, column 3, read-out: Minimal Inhibitory Concentration (MIC) E. faecium VRE
E. faecalis = test: MIC, Gram-positive bacteria: E. faecalis; conditions: Enterococcus faecalis, column 1, read-out: Minimal Inhibitory Concentration (MIC) E. faecalis
[2] = system: S. aureus Vat A streptogramin; test: MIC, Gram-positive bacteria: S. aureus Vat A streptogramin; conditions: Staphylococcus aureus, read-out: Minimal Inhibitory Concentration (MIC) S. aureus Vat A streptogramin
[3] = system: S. aureus Linezolid-resistant; cfr; test: MIC, Gram-positive bacteria: S. aureus Linezolid-resistant; cfr; conditions: Staphylococcus aureus, column 9, read-out: Minimal Inhibitory Concentration (MIC) S. aureus Linezolid-resistant
E. faecium ATCC 35667 = test: MIC, Gram-positive bacteria: E. faecium ATCC 35667; conditions: Enterococcus faecium, ATCC35667, column 2, read-out: Minimal Inhibitory Concentration (MIC) E. faecium ATCC 35667
Gram-Negative Organisms = test: microbe, parasite or virus in culture
[4] = system: K. pneumoniae multidrug-resistant; test: MIC, Gram-negative bacteria: K. pneumoniae multidrug-resistant; conditions: Klebsiella pneumoniae, read-out: Minimal Inhibitory Concentration (MIC) K. pneumoniae multidrug-resistant
S. pneumoniae = test: MIC, Gram-positive bacteria: S. pneumoniae; conditions: Streptococcus pneumoniae, column 10, read-out: Minimal Inhibitory Concentration (MIC) S. pneumoniae
[5] = first unnamed S. aureus column (c4)
[6] = fourth unnamed S. aureus column (c8)
[7] = second unnamed S. aureus column (c6)
[8] = third unnamed S. aureus column (c7)
[9] = Acinetobacter baumannii, ATCC19606, read-out: Minimal Inhibitory Concentration (MIC), A. baumannii ATCC 19606
[10] = Escherichia coli, ATCC25922, read-out: Minimal Inhibitory Concentration (MIC), E. coli ATCC 25922
[11] = Escherichia coli, read-out: Minimal Inhibitory Concentration (MIC), E. coli BAS2006, OMP C, OMP F
[12] = Escherichia coli, read-out: Minimal Inhibitory Concentration (MIC), E. coli olC efflux defective
[13] = Escherichia coli, read-out: Minimal Inhibitory Concentration (MIC), E. coli permeability mutant BAS1314, IMP4213ZAB::TN10
[14] = Escherichia coli, read-out: Minimal Inhibitory Concentration (MIC), E. coli ΔompC768, KanR insert
[15] = Klebsiella pneumoniae, ATCC43816, read-out: Minimal Inhibitory Concentration (MIC), K. pneumoniae ATCC 43816

Structure (SMILES) | MIC (H. influenzae ATCC 49247) [µg/mL] | MIC [1] [µg/mL] | MIC (S. aureus; [5]) [µg/mL] | MIC (S. aureus; [6]) [µg/mL] | MIC (S. aureus; [7]) [µg/mL] | MIC (S. aureus; [8]) [µg/mL] | MIC (P. aeruginosa ATCC 27853) [µg/mL] | MIC (E. faecium VRE; vanA) [µg/mL] | MIC (E. faecalis) [µg/mL] | MIC ([2]; Gram-positive, column 5) [µg/mL] | MIC [3] [µg/mL] | MIC (E. faecium ATCC 35667) [µg/mL] | MIC (Gram-Negative Organisms; [9]) [µg/mL] | MIC (Gram-Negative Organisms; [10]) [µg/mL] | MIC (Gram-Negative Organisms; [11]) [µg/mL] | MIC (Gram-Negative Organisms; [12]) [µg/mL] | MIC (Gram-Negative Organisms; [13]) [µg/mL] | MIC (Gram-Negative Organisms; [15]) [µg/mL] | MIC [4] [µg/mL] | MIC (S. pneumoniae) [µg/mL] | further results
CC1=C\[C@@H](O)CC(=O)Cc2nc(co2)C(=O)N2CCC[C@@H]2C(=O)O[C@H]([C@H](C)COC(=O)Nc2ccc(OC(F)(F)F)cc2)[C@H](C)/C=C/C(=O)NC\C=C\1 [SA0110195] | > 64 | > 64 | 16 (≈ 21.4 µM) | 8 (≈ 10.7 µM) | 16 (≈ 21.4 µM) | 16 (≈ 21.4 µM) | > 64 | > 64 | > 64 | > 64 | > 64 | 8 (≈ 10.7 µM) | > 64 | > 64 | > 64 | 8 (≈ 10.7 µM) | 8 (≈ 10.7 µM) | > 64 | > 64 | > 64 | MIC (Gram-Negative Organisms; [14]): > 64 µg/mL
CC1=C\[C@@H](O)CC(=O)Cc2nc(co2)C(=O)N2CCC[C@@H]2C(=O)O[C@H]([C@@H](C)COC(=O)Nc2cnccn2)[C@H](C)/C=C/C(=O)NC\C=C\1 [SA0110101] | 64 (≈ 96.3 µM) | > 64 | > 64 | > 64 | > 64 | > 64 | > 64 | > 64 | > 64 | > 64 | > 64 | 64 (≈ 96.3 µM) | > 64 | > 64 | 64 (≈ 96.3 µM) | 8 (≈ 12 µM) | 16 (≈ 24.1 µM) | > 64 | > 64 | 32 (≈ 48.1 µM) | –
CC1=C\[C@@H](O)CC(=O)Cc2nc(co2)C(=O)N2CCC[C@@H]2C(=O)O[C@H]([C@H](C)COC(=O)Nc2ccccc2)[C@H](C)/C=C/C(=O)NC\C=C\1 [SA0110196] | 16 (≈ 24.1 µM) | > 64 | 32 (≈ 48.3 µM) | 16 (≈ 24.1 µM) | 32 (≈ 48.3 µM) | 64 (≈ 96.6 µM) | > 64 | 64 (≈ 96.6 µM) | > 64 | > 64 | > 64 | 16 (≈ 24.1 µM) | > 64 | > 64 | 32 (≈ 48.3 µM) | 2 (≈ 3.02 µM) | 8 (≈ 12.1 µM) | > 64 | > 64 | 32 (≈ 48.3 µM) | MIC (Gram-Negative Organisms; [14]): > 64 µg/mL
CC1=C\[C@@H](O)CC(=O)Cc2nc(c([Si](C)(C)C)o2)C(=O)N2CCC[C@@H]2C(=O)O[C@H](C(C)C)[C@H](C)/C=C/C(=O)NC\C=C\1 [SA0110261] | > 64 | > 64 | > 64 | 64 (≈ 107 µM) | 64 (≈ 107 µM) | > 64 | > 64 | > 64 | > 64 | – | > 64 | 64 (≈ 107 µM) | > 64 | > 64 | > 64 | 64 (≈ 107 µM) | 16 (≈ 26.7 µM) | > 64 | > 64 | 64 (≈ 107 µM) | MIC [2]: > 64 µg/mL; MIC (Gram-Negative Organisms; [14]): > 64 µg/mL
CC1=C\[C@@H](O)CC(N)Cc2nc(cs2)C(=O)N2CCC[C@@H]2C(=O)O[C@H](C(C)C)[C@H](C)/C=C/C(=O)NC\C=C\1 (stereo partly shown) [SA0110268] | 64 (≈ 117 µM) | > 64 | > 64 | > 64 | > 64 | > 64 | > 64 | > 64 | > 64 | > 64 | > 64 | 64 (≈ 117 µM) | > 64 | > 64 | 16 (≈ 29.4 µM) | 2 (≈ 3.67 µM) | 2 (≈ 3.67 µM) | > 64 | > 64 | 32 (≈ 58.7 µM) | MIC (Gram-Negative Organisms; [14]): > 64 µg/mL
CC1=C\[C@@H](O)CC(=O)Cc2nc(co2)C(=O)N2CCC[C@@H]2C(=O)O[C@H]([C@@H](C)COC(=O)Nc2ccc(Br)nc2)[C@H](C)/C=C/C(=O)NC\C=C\1 [SA0110082] | 64 (≈ 86.2 µM) | > 64 | > 64 | 32 (≈ 43.1 µM) | > 64 | > 64 | > 64 | > 64 | > 64 | > 64 | > 64 | 32 (≈ 43.1 µM) | > 64 | > 64 | 32 (≈ 43.1 µM) | 4 (≈ 5.39 µM) | 16 (≈ 21.5 µM) | > 64 | > 64 | 8 (≈ 10.8 µM) | –
